pKi: −log10 of the molar value.
Molecular target: T1, androgen receptor (Homo sapiens, UniProt P10275)
T1 construct: host or cells: unnamed cells, cytosolic fraction
T1 sequence (P10275 1-920): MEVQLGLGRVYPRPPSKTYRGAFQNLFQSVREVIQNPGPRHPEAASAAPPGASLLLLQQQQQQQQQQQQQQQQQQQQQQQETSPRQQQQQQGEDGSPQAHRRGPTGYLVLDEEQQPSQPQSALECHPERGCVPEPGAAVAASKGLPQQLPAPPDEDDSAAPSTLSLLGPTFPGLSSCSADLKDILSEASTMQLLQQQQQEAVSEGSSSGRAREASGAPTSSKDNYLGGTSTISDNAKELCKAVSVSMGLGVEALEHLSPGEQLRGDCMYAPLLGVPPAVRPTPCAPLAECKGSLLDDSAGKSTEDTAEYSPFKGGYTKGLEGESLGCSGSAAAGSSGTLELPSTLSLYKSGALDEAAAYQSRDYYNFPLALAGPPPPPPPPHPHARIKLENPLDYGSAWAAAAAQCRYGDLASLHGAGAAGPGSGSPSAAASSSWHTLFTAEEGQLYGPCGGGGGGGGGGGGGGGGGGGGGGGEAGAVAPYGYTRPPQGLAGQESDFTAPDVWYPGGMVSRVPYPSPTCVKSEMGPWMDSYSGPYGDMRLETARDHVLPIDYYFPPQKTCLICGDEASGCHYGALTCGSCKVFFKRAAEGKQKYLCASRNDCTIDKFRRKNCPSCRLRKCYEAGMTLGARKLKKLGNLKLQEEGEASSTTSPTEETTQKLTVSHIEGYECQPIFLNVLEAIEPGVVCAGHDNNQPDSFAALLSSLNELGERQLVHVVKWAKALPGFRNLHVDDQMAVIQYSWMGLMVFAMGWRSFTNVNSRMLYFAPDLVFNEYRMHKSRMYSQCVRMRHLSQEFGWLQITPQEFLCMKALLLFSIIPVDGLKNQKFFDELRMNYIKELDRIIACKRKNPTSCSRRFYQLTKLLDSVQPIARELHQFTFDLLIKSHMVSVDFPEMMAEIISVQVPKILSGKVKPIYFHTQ
Assay: Assay for binding affinity to androgen receptor ([3H]methyltrienolone radioligand competition, cell cytosol)
Details: binding to the androgen receptor, 1 nM [3H]methyltrienolone, 24 hr at 4° C.
Procedure: Fractions of cell cytosol ([…]) were incubated for 24 hr at 4° C. with 1 nM [^3H]methyltrienolone in the absence or presence of the test compound in a buffer containing 25 mM Hepes-Tris (pH 7.4), 1 mM EDTA, 10 mM Na2MoO4, 2 mM DTT, 5 μM triamcinolone acetonide, and 10% glycerol. Nonspecific binding was determined in the presence of […] testosterone. Following incubation, the samples were filtered rapidly under vacuum through glass fiber filters (GF/B, Packard) presoaked with 0.3% PEI and rinsed several times with ice-cold 50 mM Tris-HCl using a 96-sample cell harvester (Unifilter, Packard). The filters were dried then counted for radioactivity in a scintillation counter (Topcount, Packard) using a scintillation cocktail (Microscint 0, Packard). The results are expressed as a percent inhibition of the control radioligand specific binding. The standard reference compound is testosterone, which is tested in each experiment at several concentrations to obtain a competition curve from which its IC50 is calculated.

| SMILES | pKi |
| --- | --- |
| CCS(=O)(=O)Nc1ccc(Oc2cccc(OCCOCCOC3CCN(c4ncc(C(=O)N[C@H]5C(C)(C)[C@H](Oc6ccc(C#N)c(Cl)c6)C5(C)C)cn4)CC3)c2)c(-c2cn(C)c(=O)c3[nH]ccc23)c1 [Compound I-13] | > 7.30 |
| CCS(=O)(=O)Nc1ccc(Oc2cccc(CCOC3CCN(c4ncc(C(=O)N[C@H]5C(C)(C)[C@H](Oc6ccc(C#N)c(Cl)c6)C5(C)C)cn4)CC3)c2)c(-c2cn(C)c(=O)c3[nH]ccc23)c1 [Compound I-19] | > 7.30 |
| Cn1cc(-c2ccccc2Oc2cccc(OCCOC3CCN(c4ncc(C(=O)N[C@H]5C(C)(C)[C@H](Oc6ccc(C#N)c(Cl)c6)C5(C)C)cn4)CC3)c2)c2cc[nH]c2c1=O [Compound I-61, N-((1r, 3r)-3-(3-chloro-4-cyanophenoxy)-2,2,4,4-tetramethylcyclobutyl)-2-(4-(2-(3-(2-(6-methyl-7-oxo-6,7-dihydro-1H-pyrrolo[2,3-c]pyridin-4-yl)phenoxy)phenoxy)ethoxy)piperidin-1-yl)pyrimidine-5-carboxamide] | > 7.30 |
| CCS(=O)(=O)Nc1ccc(Oc2cccc(NCCOC3CCN(c4ncc(C(=O)N[C@H]5C(C)(C)[C@H](Oc6ccc(C#N)c(Cl)c6)C5(C)C)cn4)CC3)c2)c(-c2cn(C)c(=O)c3[nH]ccc23)c1 [Compound I-84] | > 7.30 |
| Cn1cc(-c2cc(N)ccc2Oc2cccc(N3CC(N4CCN(c5ncc(C(=O)N[C@H]6C(C)(C)[C@H](Oc7ccc(C#N)c(Cl)c7)C6(C)C)cn5)CC4)C3)c2F)c2cc[nH]c2c1=O [Compound I-93] | > 7.30 |
| Cn1cc(-c2cc(N)ccc2Oc2cccc(OCCC3CCN(c4ncc(C(=O)N[C@H]5C(C)(C)[C@H](Oc6ccc(C#N)c(Cl)c6)C5(C)C)cn4)CC3)c2)c2cc[nH]c2c1=O [Compound I-101] | > 7.30 |
| CCS(=O)(=O)N(C)c1ccc(Oc2cccc(N3CCN(C4CN(c5ncc(C(=O)N[C@H]6C(C)(C)[C@H](Oc7ccc(C#N)c(Cl)c7)C6(C)C)cn5)C4)CC3)c2)c(-c2cn(C)c(=O)c3[nH]ccc23)c1 [Compound I-118] | > 7.30 |
| CCS(=O)(=O)Nc1ccc(Oc2cccc(CCN3CC4CN(c5ncc(C(=O)N[C@H]6C(C)(C)[C@H](Oc7ccc(C#N)c(Cl)c7)C6(C)C)cn5)CC4C3)c2)c(-c2cn(C)c(=O)c3[nH]ccc23)c1 (stereo partly shown) [Compound I-119] | > 7.30 |
| CCS(=O)(=O)c1ccc(Oc2cccc(OCCOC3CCN(c4ccc(C(=O)N[C@H]5C(C)(C)[C@H](Oc6ccc(C#N)c(Cl)c6)C5(C)C)cn4)CC3)c2F)c(-c2cn(C)c(=O)c3[nH]ccc23)c1 [Compound I-185] | > 7.30 |

Results, then the molecule that gave them:

| pKi | SMILES |
| --- | --- |
| > 7.30 | CCS(=O)(=O)Nc1ccc(Oc2cccc(OCCN(C)c3ncc(C(=O)N[C@H]4C(C)(C)[C@H](Oc5ccc(C#N)c(Cl)c5)C4(C)C)cn3)c2)c(-c2cn(C)c(=O)c3[nH]ccc23)c1 [Compound I-1, N-((1r, 3r)-3-(3-chloro-4-cyanophenoxy)-2,2,4,4-tetramethylcyclobutyl)-2-((2-(3-(4-(ethylsulfonamido)-2-(6-methyl-7-oxo-6,7-dihydro-1H-pyrrolo[2,3-c]pyridin-4-yl)phenoxy)phenoxy)ethyl)(methyl)amino)pyrimidine-5-carboxamide] |
| > 7.30 | CCS(=O)(=O)Nc1ccc(Oc2cccc(OCCOCCOCCOCCOCCN(C)c3ncc(C(=O)N[C@H]4C(C)(C)[C@H](Oc5ccc(C#N)c(Cl)c5)C4(C)C)cn3)c2)c(-c2cn(C)c(=O)c3[nH]ccc23)c1 [Compound I-3] |
| > 7.30 | CCS(=O)(=O)Nc1ccc(Oc2cccc(OCCOCCOCCOCCOCCOC3CCN(c4ncc(C(=O)N[C@H]5C(C)(C)[C@H](Oc6ccc(C#N)c(Cl)c6)C5(C)C)cn4)CC3)c2)c(-c2cn(C)c(=O)c3[nH]ccc23)c1 [Compound I-8] |
| > 7.30 | CCS(=O)(=O)Nc1ccc(Oc2cccc(OCCOC3CCN(c4ccc(C(=O)N[C@H]5C(C)(C)[C@H](Oc6ccc(C#N)c(Cl)c6)C5(C)C)nn4)CC3)c2)c(-c2cn(C)c(=O)c3[nH]ccc23)c1 [Compound I-11] |
| > 7.30 | CCS(=O)(=O)Nc1ccc(Oc2cccc(N(C)C3CN(CC4CCN(c5ncc(C(=O)NC6C(C)(C)C(Oc7ccc(C#N)c(Cl)c7)C6(C)C)cn5)CC4)C3)c2)c(-c2cn(C)c(=O)c3[nH]ccc23)c1 (stereo not shown) [Compound I-39] |
| > 7.30 | CCS(=O)(=O)Nc1ccc(Oc2cccc(OCCOC3CCN(c4ncc(C(=O)N[C@H]5C(C)(C)[C@H](Oc6ccc(C#N)c(Cl)c6)C5(C)C)cn4)CC3)n2)c(-c2cn(C)c(=O)c3[nH]ccc23)c1 [Compound I-47, N-((1r, 3r)-3-(3-chloro-4-cyanophenoxy)-2,2,4,4-tetra-methylcyclobutyl)-2-(4-(2-((6-(4-(ethylsulfonamido)-2-(6-methyl-7-oxo-6,7-dihydro-1H-pyrrolo[2,3-c]pyridin-4-yl)phenoxy)pyridin-2-yl)oxy)ethoxy)piperidin-1-yl)pyrimidine-5-carboxamide] |
| > 7.30 | Cn1cc(-c2ccccc2Oc2cccc(OCCN3CCN(c4ncc(C(=O)N[C@H]5C(C)(C)[C@H](Oc6ccc(C#N)c(Cl)c6)C5(C)C)cn4)CC3)c2)c2cc[nH]c2c1=O [Compound I-98] |
| > 7.30 | Cn1cc(-c2cc(N)ccc2Oc2cccc(OCCN3CCN(c4ncc(C(=O)N[C@H]5C(C)(C)[C@H](Oc6ccc(C#N)c(Cl)c6)C5(C)C)cn4)CC3)c2F)c2cc[nH]c2c1=O [Compound I-100] |
| > 7.30 | CCS(=O)(=O)Nc1ccc(Oc2cccc(N3CC(N(C)C4CN(c5ncc(C(=O)N[C@H]6C(C)(C)[C@H](Oc7ccc(C#N)c(Cl)c7)C6(C)C)cn5)C4)C3)c2)c(-c2cn(C)c(=O)c3[nH]ccc23)c1 [Compound I-120] |
| > 7.30 | CCS(=O)(=O)Nc1ccc(Oc2cccc(N3CCN(C4CN(c5ncc(C(=O)N[C@H]6C(C)(C)[C@H](Oc7ccc(C#N)c(Cl)c7)C6(C)C)cn5)C4)CC3)c2)c(-c2cn(C)c(=O)c3[nH]ccc23)c1 [Compound I-126] |
| > 7.30 | CCS(=O)(=O)Nc1ccc(Oc2cccc(N3CC(CC4CN(c5ncc(C(=O)N[C@H]6C(C)(C)[C@H](Oc7ccc(C#N)c(Cl)c7)C6(C)C)cn5)C4)C3)c2)c(-c2cn(C)c(=O)c3[nH]ccc23)c1 [Compound I-158] |

Tested on: T-Rex 293 cell line SC cells having increased expression of progesterone receptor isoform B protein
Assay: Cellular growth inhibition assay, T-Rex 293 SC cells exposed to doxycycline (increased progesterone receptor isoform B expression), CellTiter-Glo
Format: cell-based
Details: T-Rex 293 SC cells with 10 ng/mL doxycycline (increased PR isoform B), 72 hours
Procedure: The SC cells were seeded on poly-D-lysine coated, black clear-bottom 384-well plates at 2500/well, in 25 μL Phenol Red Free Dulbecco's Modified Eagle Medium (DMEM) supplemented with 10% w/w charcoal-dextran treated fetal bovine serum (FBS) and 1% w/w pen-strep, with or without 10 ng/mL doxycycline. Pen-Strep is a commercially available mixture of penicillin G and streptomycin, which is used in mammalian cell culture media to prevent bacterial contamination. Phenol Red Free Dulbecco's Modified Eagle Medium (DMEM) supplemented with 10% w/w charcoal-dextran treated fetal bovine serum (FBS) and 1% w/w pen-strep, with or without 10 ng/mL doxycycline is herein referred to as Treatment Medium. Following seeding of cells in the plates, the plates were spun at 300×g for 30 seconds, then equilibrated to room temperature for 30 minutes, and then deposited in a humidified tissue culture incubator maintained at 37° C. with 5% CO2.
At 24 hours after seeding of the cells, dilutions of test compound were prepared in DMSO and dissolved in Treatment Medium, to achieve a final DMSO concentration of 0.5% w/w, thereby providing the Test Compound Solution. A 25 μL aliquot of the Test Compound Solution was added to cells in the well plates. An equal volume of a solution containing DMSO and Treatment Medium was used as a negative control. Following treatment of cells with Test Compound Solution or said equal volume of a solution containing DMSO and Treatment Medium, the plates were spun at 300×g for 30 seconds, and then left in an incubator for 72 hours.
At the end of the treatment duration, cell viability was quantified with CellTiter-Glo 2.0 reagent (Promega Cat #G9243). For this purpose, plates were equilibrated to room temperature for 30 minutes, and then 25 μL of CellTiter-Glo 2.0 reagent was added to cells in the plate wells. Plates were then agitated on a shaker for two minutes at 500 rpm and subsequently incubated at room temperature for 10 minutes. Following incubation, the plates were spun at 3000×g for 30 seconds, then sealed with an optical adhesive cover, and luminescence readings were measured with an EnVision Plate Reader (Perkin Elmer).
Data was normalized using zero luminescence for baseline. A four-parameter non-linear regression curve fit was applied to dose-response data in GraphPad Prism data analysis software to determine the half-maximal growth inhibitory concentration (GI50) for each test compound.

| SMILES | GI50 |
| --- | --- |
| CCS(=O)(=O)Nc1ccc(Oc2cccc(OCCN(C)c3ncc(C(=O)N[C@H]4C(C)(C)[C@H](Oc5ccc(C#N)c(Cl)c5)C4(C)C)cn3)c2)c(-c2cn(C)c(=O)c3[nH]ccc23)c1 [Compound I-1, N-((1r, 3r)-3-(3-chloro-4-cyanophenoxy)-2,2,4,4-tetramethylcyclobutyl)-2-((2-(3-(4-(ethylsulfonamido)-2-(6-methyl-7-oxo-6,7-dihydro-1H-pyrrolo[2,3-c]pyridin-4-yl)phenoxy)phenoxy)ethyl)(methyl)amino)pyrimidine-5-carboxamide] | < 500 nM |
| CCS(=O)(=O)Nc1ccc(Oc2cccc(OCCOCCOCCOCCOCCN(C)c3ncc(C(=O)N[C@H]4C(C)(C)[C@H](Oc5ccc(C#N)c(Cl)c5)C4(C)C)cn3)c2)c(-c2cn(C)c(=O)c3[nH]ccc23)c1 [Compound I-3] | < 500 nM |

Reference: US20250388605A1, “HETEROBIFUNCTIONAL COMPOUNDS AND METHODS OF TREATING DISEASE” (Halda Therapeutics OpCo, Inc., priority 2022, published 2025)
